Patent US6958334B2, “Inhibitors of Akt activity” (Merck & Co., Inc., priority 2001, dated 2005)

Tested on: PKC (mix of isoforms)
Assay: PKC assay (counter screen)
Format: biochemical
Conditions: myelin basic protein substrate; read-out: Counter screens IC50 (μM) PKC
Protocol: Each PKC assay consists of the following components:
Final assay concentrations were as follows: 0.25 mM EGTA, 0.4 mM CaCl, 20 mM Tris pH 7.5, 10 mM MgCl, 1 mM 2-mercaptoethanol, 0.32 mg/ml phosphatidylserine, 0.032 mg/ml diacylglycerol, 10 μM ^33P-ATP, 70 μg/ml MBP, 10 ng/ml PKC, 0.1 mg/ml BSA.
Assays are performed using 96 deep well assay plates. In each assay well 10 μl of solvent control or appropriate inhibitor dilution with 5 μl ^33P-ATP (components #5 and #3) were premixed. In a separate tube, a mixture containing equal volumes of components #1, #2, #4, and #6 was prepared. The assay reaction was initiated, by adding 35 μl of the components #1, #2, #4, and #6 mixture to wells containing ^33P-ATP and inhibitor. The liquid in the assay wells was thoroughly mixed and the assay reactions incubated for 20 minutes at room temperature. The reactions were stopped by adding 100 mM EDTA (50 μl) and 100 mM sodium pyrophosphate (50 μl) and mixing. Phosphorylated MBP was collected on PVDF membranes in 96 well filter plates and quantitated by scintillation counting.

Row | Structure (SMILES) | IC50 [µM]
1 | CN(C)CC(C)(C)CNc1nn2c(-c3ccccc3)nnc2c2ccccc12 [Compound 1, 2,2,N,N-tetramethyl-N-(3-phenyl-[1,2,4]triazolo[3,4-α]phthalazin-6-yl)-propane-1,3-diamine] | > 40
2 | COc1ccc(-c2nnc3c4ccccc4c(NCC(C)(C)CN(C)C)nn23)cc1 [Compound 2, N′-[3-(4-Methoxy-phenyl)-[1,2,4]triazolo[4,3-α]phthalazin-6-yl)-2,2,N,N-tetramethyl-propane-1,3-diamine] | > 40
